Values quoted from earlier work, collected in patent EP0918795B1, “ANTIANGIOGENIC DRUG TO TREAT CANCER, ARTHRITIS AND RETINOPATHY” (Abbott Laboratories, priority 1997, dated 2004).
No end group written: not given here.

Key:
[1] = tested on: cultured endothelial cells; conditions: inhibition of the migration of cultured endothelial cells

For “SPWSSASVTAGDGVITRIR [MalII, 19-mer synthetic peptide mimicking properdin-like repeat region 1 of TSP1]”, the “neovascularization in vivo in the rat cornea” value (rat cornea) is listed as “blocked neovascularization” and the ED50 [1] is listed as “about 1 µM”.
